Measurements from patent US11304930B2, “Ammonium salts of 3-(3,5-dibromo-4-hydroxybenzyliden)-5-indo-1,3-dihydroindol-2-one and uses thereof” (Metagone Biotech Inc., priority 2018, dated 2022).
Read-outs that look alike come from different tables or passages of the source.

Assays:
[1] = Water solubility of GW5074 salts
SUN-1 cells = assay: MTS cell viability / proliferation assay; type: cell-based; conditions: 72 hrs, in combination with sorafenib
Protocol: Gastric cancer cell line SUN-1 was purchased from the American Type Culture Collection (ATCC; Manassas, Va., USA) and were maintained in Roswell Park Memorial Institute-1640 (RPMI-1640) supplemented with 1.5 g/L sodium bicarbonate, 10% fetal bovine serum (FBS), 1.0% antibiotic-antimycotic, L-glutamine (2.0×10^−3 M), and 1.0% nonessential amino acids.
MTS cell proliferation assay kit (Abcam, Cambridge, UK) was used to evaluate cell viability. Briefly, SNU-1 cells were seeded in each well of a 96-well plate at the density of 8,000 cells/well and incubated overnight at 37° C. Cells were then treated with a test drug for 48 or 72 h at 37° C. Then, 20 μl MTS/well was added and incubated for 3 h at 37° C. Cell viability was measured by absorbance at 490 nm in a microplate reader.
To validate the bioactivity of the ammonium salts of GW5074 of Example 1, their effects on cell proliferation with or without the addition of another cell proliferation inhibitor-sorafenib, were investigated using MTS cell proliferation assay kit in accordance with the manufacturer's protocols. Results are illustrated FIGS. 1A and 1B.

[2] = Pilot pharmacokinetic study in mice; conditions: single dose 40 mg/Kg, GW5074 measured in plasma; for AUC0-t: 0 to 24 hours
Protocol: (§1) B6 mice about 6-8 weeks of age (National laboratory animal center, Taipei, Taiwan) were used in the present study.
(§2) Pilot PK studies were carried out in mice.
(§3) Mice were fasting for 8 hrs before dosing. […] Blood samples were drawn from the tail vein at pre-designated time points. Each samples were extracted with 80% ethanol for 30 minutes and individually filtered through a 0.22 μm PVDF filter, then were subjected to HPLC-MS/MS.

[3] = mouse, in vivo, 40 mg/kg
Protocol: as §1, §2, §3

| Compound | Solubility [1] [mg/100 mL] | growth inhibition (SUN-1 cells) | Cmax [2] [ng/mL] | T1/2 [2] [h] | Tmax [2] [h] | AUC0-t [2] [ng·h/mL] | AUC0-t [3] [ng·h/mL] | Cmax [3] [ng/mL] | T1/2 [3] [h] | Tmax [3] [h] |
| --- | --- | --- | --- | --- | --- | --- | --- | --- | --- | --- |
| C1COCCN1.O=C1Nc2ccc(I)cc2C1=Cc1cc(Br)c(O)c(Br)c1 [Morpholine Salt of GW5075] | 0.57 | – | – | – | – | – | – | – | – | – |
| O=C1Nc2ccc(I)cc2C1=Cc1cc(Br)c(O)c(Br)c1.OCCN(CCO)CCO [MG-A3, Triethanolamine Salt of GW5075] | – | about 70% | 6844.6 | 4.364 | 0.5 | 8258.7 | – | – | – | – |
| CC(C)(N)CN.O=C1Nc2ccc(I)cc2C1=Cc1cc(Br)c(O)c(Br)c1 [MG-A2, 2-Amino-2-Methylpropylamine Salt of GW5075] | 0.19 | about 70% | 6447.7 | 4.855 | 0.5 | 7936.2 | – | – | – | – |
| O=C1Nc2ccc(I)cc2C1=Cc1cc(Br)c(O)c(Br)c1 [GW5074, 3-(3,5-dibromo-4-hydroxybenzyliden)-5-iodo-1,3-duhydroindol-2-one] | – | about 70% | – | – | – | – | 6127.9 | 4905.2 | 3.719 | 0.5 |
| O=C1Nc2ccc(I)cc2C1=Cc1cc(Br)c([O-])c(Br)c1.[Na+] [MG-A1, Sodium Salts of GW5074] | – | about 70% | – | – | – | – | – | – | – | – |
